Literature values in PMC2913283 (Bioconjugate chemistry, 2010).

Conditions: initial studies

## Diethylenetriaminepenatacetic acid-(DTPA-Al^18F) complexes
  stability in vitro: not stable in vitro
